Results: paper PMC4717260, “2-(2,4-Dioxy-1,2,3,4-Tetrahydropyrimidin-1-yl)-N-(4-Phenoxyphenyl)-Acetamides as a Novel Class of Cytomegalovirus Replication Inhibitors” (Acta Naturae, 2015)
Read-outs that look alike come from different tables or passages of the source. Values belong to the compound of their own block, whether it stands above or below them.

Tests used:
[1] = system: CMV (AD-169 and Davis strains); assay: Anti-CMV activity in HEL cell culture; format: cell-based, human cytomegalovirus; settings: read-out: EC50, inhibition of CMV replication
VZV (Oka strain) = assay: microbe, parasite or virus in culture; format: cell-based, varicella zoster virus; settings: read-out: EC50, VZV replication (Oka strain)
[2] = target: thymidine kinase deficient VZV mutant strain (07-1); assay: Anti-VZV activity (thymidine kinase deficient mutant strain 07-1); format: cell-based, varicella zoster virus

melting point: 184 to 185 °C
SMILES: O=C(Cn1c(=O)ccn(CC=Cc2ccccc2)c1=O)Nc1ccc(Oc2ccccc2)cc1

melting point: 154 to 155 °C
SMILES: O=C(Cn1c(=O)ccn(CCOc2ccccc2)c1=O)Nc1ccc(Oc2ccccc2)cc1

Second part, the compound before the results:

SMILES: C#CCn1ccc(=O)n(CC(=O)Nc2ccc(Oc3ccccc3)cc2)c1=O
melting point: 226 to 228 °C

SMILES: Cc1ccc(Cn2ccc(=O)n(CC(=O)Nc3ccc(Oc4ccccc4)cc3)c2=O)cc1
melting point: 193 to 194 °C

SMILES: O=C(Cn1c(=O)ccn(Cc2ccccc2)c1=O)Nc1ccc(Oc2ccccc2)cc1 [Compound 4, 2-(3-Benzyl-2,6-dioxo-3,6-dihydropyrimidin-1(2H)-yl)-N-(4-phenoxyphenyl)acetamides]
EC50 ([1]; one range printed for both compounds and both strains): 3.06 to 8.9 µM
EC50 (VZV (Oka strain); HEL cell culture, Oka strain): 8.18 µM
EC50 ([2]; strain 07-1, resistant to acyclovir and brivudine, read-out: EC50, thymidine kinase deficient VZV mutant strain (07-1)): 6.68 µM

SMILES: Cc1cc(C)cc(Cn2ccc(=O)n(CC(=O)Nc3ccc(Oc4ccccc4)cc3)c2=O)c1 [Compound 6, 2-[3-(3,5-Dimethylbenzyl)-2,6-dioxo-3,6-dihydropyrimidin-1(2H)-yl]-N-(4-phenoxyphenyl)acetamide]
EC50 ([1]; Human betaherpesvirus 5, AD169, one range printed for both compounds and both strains): 3.06 to 8.9 µM
melting point: 99 to 101 °C
EC50 (VZV (Oka strain); Human alphaherpesvirus 3, HEL): 17 µM
EC50 ([2]; Human alphaherpesvirus 3, read-out: EC50, thymidine kinase deficient VZV mutant strain (07-1)): 16.1 µM

SMILES: O=c1[nH]c(=O)n([C@H]2C[C@H](O)[C@@H](CO)O2)cc1/C=C/Br [brivudine, reference compound]
EC50 (VZV (Oka strain); Human alphaherpesvirus 3, HEL): 0.026 µM
